Measured values reported in patent EP0361348A1, “Non-steroidal pharmaceutical composition and process for producing the same” (NIPPON HYPOX LABORATORIES INCORPORATED, priority 1988, dated 1990).

Tested on: male SD rats
Assay: Anti-inflammatory action: carrageenin-induced sole swelling (plethysmometer)
Assay type: in vivo
Conditions: 1 mg/kg in terms of Piroxicam, oral; for Swelling percent: 1 hour before carrageenin, mean, n=5
Method: As test animals, there were used male SD rats each weighing about 200 g. As a test sample, there was used a suspension of each of the anti-inflammatory agent compositions No. 1-4 obtained in Examples 1-4 above, in a gum arabic solution (the concentration of Piroxicam in the suspension was 1%). This test sample was orally administered to each rat in an amount of 1 mg/kg in terms of Piroxicam. One hour after the administration of the test sample, an inflammatory agent (0.1 ml of a physiological saline solution containing 1% of carrageenin) was subcutaneously injected to each rat at the sole. Then, the sole volume was measured with the lapse of time using a plethysmometer, and swelling percent was calculated from the following formula. Swelling percent (%) = [(Ps - Po)/Po] x 100 where Po = sole volume before injection of carrageenin Ps = sole volume at a certain time after the injection of carrageenin For comparison, Piroxicam alone was orally administered in an amount of 1 mg/kg, in the same manner as above, and the change of swelling percent with time was examined.

CN1C(C(=O)Nc2ccccn2)=C(O)c2ccccc2S1(=O)=O [Piroxicam alone, Piroxicam]
Swelling percent (0.5 hour after carrageenin injection): 26.79% | Swelling percent (1 hour after carrageenin injection): 39.51% | Swelling percent (1.5 hours after carrageenin injection): 46.71% | Swelling percent (2 hours after carrageenin injection): 45.72% | Swelling percent (3 hours after carrageenin injection): 43.77% | Swelling percent (4 hours after carrageenin injection): 44.33% | anti-inflammatory action (result in words, from Table 1): significant anti-inflammatory action
